From US20240092758A1, “IMIDAZOLO INDAZOLE COMPOUNDS AS JAK INHIBITORS” (Theravance Biopharma R&D IP, LLC, priority 2021, published 2024)

Tests used:
[1] = target: TYK2 (Homo sapiens (Human), UniProt P29597); experiment: Biochemical JAK kinase assay (LanthaScreen), Tyk2; details: read-out: Tyk2 pKi (converted)
Protocol: (§1) A panel of four LanthaScreen JAK biochemical assays (JAK1, 2, 3 and Tyk2) were carried in a common kinase reaction buffer (50 mM HEPES, pH 7.5, 0.01% Brij-35, 10 mM MgCl2, and 1 mM EGTA). Recombinant GST-tagged JAK enzymes and a GFP-tagged STAT1 peptide substrate were obtained from Life Technologies.
(§2) Serially diluted compounds were pre-incubated with each of the four JAK enzymes and the substrate in white 384-well microplates (Corning) at ambient temperature for 1 h. ATP was subsequently added to initiate the kinase reactions in 10 μL total volume, with 1% DMSO. The final enzyme concentrations for JAK1, 2, 3 and Tyk2 are 4.2 nM, 0.1 nM, 1 nM, and 0.25 nM respectively; the corresponding Km ATP concentrations used are 25 μM, 3 μM, 1.6 μM, and 10 μM; while the substrate concentration is 200 nM for all four assays. Kinase reactions were allowed to proceed for 1 hour at ambient temperature before a 10 μL preparation of EDTA (10 mM final concentration) and Tb-anti-pSTAT1 (pTyr701) antibody (Life Technologies, 2 nM final concentration) in TR-FRET dilution buffer (Life Technologies) was added. The plates were allowed to incubate at ambient temperature for 1 h before being read on the EnVision reader (Perkin Elmer). Emission ratio signals (520 nm/495 nm) were recorded and utilized to calculate the percent inhibition values based on DMSO and background controls.
(§3) For dose-response analysis, percent inhibition data were plotted vs. compound concentrations, and IC50 values were determined from a 4-parameter robust fit model with the Prism software (GraphPad Software). Results were expressed as pIC50 (negative logarithm of IC50) and subsequently converted to pKi (negative logarithm of dissociation constant, Ki) using the Cheng-Prusoff equation.
(§4) Test compounds having a lower Ki value or higher pKi value in the four JAK assays show greater inhibition of JAK activity.

[2] = target: JAK1 (Homo sapiens (Human), UniProt P23458); experiment: Biochemical JAK kinase assay (LanthaScreen), JAK1; details: for Ki: read-out: JAK1 pKi (converted)
Sequence of JAK1 (P23458 whole entry): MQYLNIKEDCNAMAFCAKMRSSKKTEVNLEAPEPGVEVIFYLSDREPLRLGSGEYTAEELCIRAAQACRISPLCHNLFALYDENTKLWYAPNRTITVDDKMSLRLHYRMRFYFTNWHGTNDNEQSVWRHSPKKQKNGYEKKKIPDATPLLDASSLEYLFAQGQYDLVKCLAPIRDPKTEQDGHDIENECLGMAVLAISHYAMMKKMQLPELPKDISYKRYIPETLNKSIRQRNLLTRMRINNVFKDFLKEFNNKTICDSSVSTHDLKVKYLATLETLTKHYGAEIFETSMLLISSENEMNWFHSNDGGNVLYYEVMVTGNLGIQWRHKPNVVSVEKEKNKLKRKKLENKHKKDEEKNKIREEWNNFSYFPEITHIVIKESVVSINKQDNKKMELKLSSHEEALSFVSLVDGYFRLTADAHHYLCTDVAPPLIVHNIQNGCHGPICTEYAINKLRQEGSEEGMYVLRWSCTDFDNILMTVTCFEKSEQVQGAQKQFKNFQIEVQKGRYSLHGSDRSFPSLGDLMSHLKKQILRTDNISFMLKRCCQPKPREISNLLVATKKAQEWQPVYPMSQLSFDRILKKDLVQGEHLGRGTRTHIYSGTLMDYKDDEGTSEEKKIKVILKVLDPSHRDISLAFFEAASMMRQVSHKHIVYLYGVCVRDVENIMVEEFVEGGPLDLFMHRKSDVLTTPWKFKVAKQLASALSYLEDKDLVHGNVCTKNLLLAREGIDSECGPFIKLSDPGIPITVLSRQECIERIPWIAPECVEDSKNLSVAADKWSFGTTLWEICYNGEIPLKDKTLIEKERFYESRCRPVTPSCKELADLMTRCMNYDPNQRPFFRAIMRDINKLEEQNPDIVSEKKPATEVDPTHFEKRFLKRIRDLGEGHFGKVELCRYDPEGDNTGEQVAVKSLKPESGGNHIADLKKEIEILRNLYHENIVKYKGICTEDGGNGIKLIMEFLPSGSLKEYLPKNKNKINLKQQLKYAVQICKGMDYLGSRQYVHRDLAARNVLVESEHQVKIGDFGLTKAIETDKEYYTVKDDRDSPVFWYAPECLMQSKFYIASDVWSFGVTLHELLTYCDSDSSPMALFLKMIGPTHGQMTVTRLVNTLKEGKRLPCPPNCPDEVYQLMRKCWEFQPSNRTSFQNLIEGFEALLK
In short: (§5)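 LanthaScreen format: phospho-STAT1 (pTyr701) detected with 2 nM Tb antibody after 10 mM EDTA quench. Kinase step used Km-level ATP and 200 nM STAT1 peptide, 1 h at ambient after 1 h pre-incubation. Inhibition fitted to IC50, reported as pKi.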

[3] = target: JAK2 (Homo sapiens (Human), UniProt O60674); experiment: Biochemical JAK kinase assay (LanthaScreen), JAK2; details: for Ki: read-out: JAK2 pKi (converted)
Sequence of JAK2 (O60674 whole entry): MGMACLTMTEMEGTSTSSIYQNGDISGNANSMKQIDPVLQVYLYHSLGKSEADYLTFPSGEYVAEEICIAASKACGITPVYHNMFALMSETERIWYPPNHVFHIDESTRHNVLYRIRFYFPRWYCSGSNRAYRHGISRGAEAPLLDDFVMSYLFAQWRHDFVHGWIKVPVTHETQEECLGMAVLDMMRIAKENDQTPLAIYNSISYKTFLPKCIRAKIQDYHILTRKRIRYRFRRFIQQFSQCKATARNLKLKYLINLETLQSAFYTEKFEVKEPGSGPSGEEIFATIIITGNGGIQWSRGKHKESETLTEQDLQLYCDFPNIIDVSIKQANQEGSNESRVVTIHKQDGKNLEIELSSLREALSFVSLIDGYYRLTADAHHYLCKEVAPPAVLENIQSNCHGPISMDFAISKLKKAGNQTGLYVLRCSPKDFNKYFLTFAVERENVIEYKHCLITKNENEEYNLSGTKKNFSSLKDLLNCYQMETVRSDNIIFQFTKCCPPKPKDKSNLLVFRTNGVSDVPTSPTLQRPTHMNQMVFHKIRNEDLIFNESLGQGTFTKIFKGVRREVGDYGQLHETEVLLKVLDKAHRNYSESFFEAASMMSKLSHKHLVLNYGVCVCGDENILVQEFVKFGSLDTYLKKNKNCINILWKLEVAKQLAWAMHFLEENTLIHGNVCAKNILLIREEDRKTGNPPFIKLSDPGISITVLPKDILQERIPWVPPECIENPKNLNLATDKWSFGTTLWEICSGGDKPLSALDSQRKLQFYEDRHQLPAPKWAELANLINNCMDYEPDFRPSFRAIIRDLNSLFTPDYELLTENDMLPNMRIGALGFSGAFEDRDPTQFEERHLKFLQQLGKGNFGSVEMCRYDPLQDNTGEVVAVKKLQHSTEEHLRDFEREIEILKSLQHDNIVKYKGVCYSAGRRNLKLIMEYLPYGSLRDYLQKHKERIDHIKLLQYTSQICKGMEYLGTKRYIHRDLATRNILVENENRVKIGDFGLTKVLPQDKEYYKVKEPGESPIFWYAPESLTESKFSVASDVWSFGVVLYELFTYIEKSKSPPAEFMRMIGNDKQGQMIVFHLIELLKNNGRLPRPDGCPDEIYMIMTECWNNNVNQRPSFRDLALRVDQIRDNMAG
In short: as §5

[4] = tested on: IL-13 induced STAT6 phosphorylation in BEAS-2B human lung epithelial cells; experiment: Cellular JAKI potency assay (BEAS-2B); format: cell-based; details: Homo sapiens, BEAS-2B, BEAS-2B cells, read-out: BEAS2B pIC50 (converted)
In short: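 AlphaLISA SureFire detection of Tyr641 pSTAT6 in lysates gave IC50s (4-parameter fit, expressed as pIC50). Cells: human BEAS-2B, exposed 1 h at 37 °C to compound dose series at 0.1% DMSO, then 30 min to IL-13 added at 80 ng/mL in HEPES-buffered HBSS with BSA.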

[5] = target: JAK3 (Homo sapiens (Human), UniProt P52333); experiment: Biochemical JAK kinase assay (LanthaScreen), JAK3; details: read-out: JAK3 pKi (converted)
Sequence of JAK3 (P52333 whole entry): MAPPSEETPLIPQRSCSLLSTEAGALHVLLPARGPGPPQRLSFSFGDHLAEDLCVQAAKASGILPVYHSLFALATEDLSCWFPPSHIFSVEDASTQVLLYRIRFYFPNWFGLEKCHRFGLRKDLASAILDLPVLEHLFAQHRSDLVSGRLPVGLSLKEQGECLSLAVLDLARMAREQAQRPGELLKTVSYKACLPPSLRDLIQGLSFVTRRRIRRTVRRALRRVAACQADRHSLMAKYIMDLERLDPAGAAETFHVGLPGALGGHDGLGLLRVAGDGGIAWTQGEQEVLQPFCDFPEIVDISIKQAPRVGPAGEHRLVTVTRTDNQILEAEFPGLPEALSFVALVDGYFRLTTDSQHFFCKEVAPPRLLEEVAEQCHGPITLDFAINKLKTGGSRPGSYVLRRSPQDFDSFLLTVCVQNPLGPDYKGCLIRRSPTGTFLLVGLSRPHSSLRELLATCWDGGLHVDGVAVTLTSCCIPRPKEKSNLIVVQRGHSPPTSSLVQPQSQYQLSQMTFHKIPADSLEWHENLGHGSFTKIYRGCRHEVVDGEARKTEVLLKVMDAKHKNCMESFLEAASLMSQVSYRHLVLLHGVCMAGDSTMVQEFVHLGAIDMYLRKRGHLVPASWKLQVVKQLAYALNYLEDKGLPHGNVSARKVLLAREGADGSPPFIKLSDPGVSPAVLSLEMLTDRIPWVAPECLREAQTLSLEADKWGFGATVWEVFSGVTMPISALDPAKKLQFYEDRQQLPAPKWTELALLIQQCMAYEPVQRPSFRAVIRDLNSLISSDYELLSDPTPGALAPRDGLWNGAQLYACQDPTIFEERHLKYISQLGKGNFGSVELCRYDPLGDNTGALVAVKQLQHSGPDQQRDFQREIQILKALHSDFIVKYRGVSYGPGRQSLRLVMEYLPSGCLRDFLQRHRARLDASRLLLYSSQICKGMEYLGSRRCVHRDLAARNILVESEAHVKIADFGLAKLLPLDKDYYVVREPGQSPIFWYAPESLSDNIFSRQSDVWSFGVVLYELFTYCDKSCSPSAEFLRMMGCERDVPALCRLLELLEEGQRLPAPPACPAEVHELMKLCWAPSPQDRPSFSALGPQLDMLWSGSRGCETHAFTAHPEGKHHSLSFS
Protocol: as §1, §2, §3, §4

[6] = Pharmacokinetics in plasma and lung in mouse after oral aspiration administration; format: in vivo; details: male CD1 mice; for Lung Tissue AUC(0-24) / AUC(0-t): 0.2 mg/mL, two 25 μL increments; for Lung Tissue:Plasma AUC ratio: lung AUC to plasma AUC; for AUC(0-t): mouse, inhaled or intranasal, 0.01 mg/mouse, plasma, read-out: Plasma AUC(0-24)
Protocol: Plasma and lung concentrations of test compounds were quantified and pharmacokinetic parameters were calculated in the following manner. Male CD1 mice from Charles River Laboratories were used in the pharmacokinetic studies. Test compounds were individually formulated in 20% propylene glycol in pH 4 citrate buffer at a concentration of 0.2 mg/mL. Test compounds were administered in two, 25 μL increments introduced into the trachea of each mouse by oral aspiration using a calibrated pipette once the animal was anesthetized using isoflurane. Blood samples were collected as terminal collections via cardiac puncture at 0.167, 1, 4, 8, and 24 hr post-dosing. Following […] with CO2, a direct cardiac puncture was performed while avoiding puncturing the lung and blood was immediately transferred into K2EDTA tubes and placed on wet ice. Blood samples were centrifuged (Eppendorf centrifuge, 5804R) for 4 minutes at approximately 12,000 rpm at 4° C. to collect plasma. Intact lungs were also excised from these mice using the same timepoints (0.167, 1, 4, 8, and 24 hr). Lungs were washed with sterile water to remove any blood residue and were patted dry, weighed, and homogenized in 0.1% formic acid in water at a dilution of 1:3 (lung:water, weight/volume). Plasma and lung concentrations of test compounds were determined by LC-MS/MS analysis against analytical standards constructed into a standard curve in the test matrix. The pharmacokinetic parameters of test compounds were determined by non-compartmental analysis. For concentrations below the limit of quantification, zero was used for mean calculations. Mean values were not reported if more than 50% of the samples were below the limit of quantification at a timepoint, or if more than 50% of a calculated pharmacokinetic parameter was not reportable. The area under the concentration-time curve extrapolated to infinity (AUC(0-inf)) was calculated as follows: AUC(0-inf)=AUC(0-t)+Clast/k, where AUC(0-t) is the area under the concentration-time curve from the time of dosing to the last measurable concentration calculated by the linear trapezoidal rule, Clast is the last measurable concentration, and k is the first order rate constant associated with the terminal elimination phase, estimated by linear regression of time versus log concentration. The lung-to-plasma AUC ratio was determined as the ratio of the lung AUC(0-inf) in μg*hr/g to the plasma AUC(0-inf) in μg*hr/mL.

Sequence of TYK2 (P29597 whole entry): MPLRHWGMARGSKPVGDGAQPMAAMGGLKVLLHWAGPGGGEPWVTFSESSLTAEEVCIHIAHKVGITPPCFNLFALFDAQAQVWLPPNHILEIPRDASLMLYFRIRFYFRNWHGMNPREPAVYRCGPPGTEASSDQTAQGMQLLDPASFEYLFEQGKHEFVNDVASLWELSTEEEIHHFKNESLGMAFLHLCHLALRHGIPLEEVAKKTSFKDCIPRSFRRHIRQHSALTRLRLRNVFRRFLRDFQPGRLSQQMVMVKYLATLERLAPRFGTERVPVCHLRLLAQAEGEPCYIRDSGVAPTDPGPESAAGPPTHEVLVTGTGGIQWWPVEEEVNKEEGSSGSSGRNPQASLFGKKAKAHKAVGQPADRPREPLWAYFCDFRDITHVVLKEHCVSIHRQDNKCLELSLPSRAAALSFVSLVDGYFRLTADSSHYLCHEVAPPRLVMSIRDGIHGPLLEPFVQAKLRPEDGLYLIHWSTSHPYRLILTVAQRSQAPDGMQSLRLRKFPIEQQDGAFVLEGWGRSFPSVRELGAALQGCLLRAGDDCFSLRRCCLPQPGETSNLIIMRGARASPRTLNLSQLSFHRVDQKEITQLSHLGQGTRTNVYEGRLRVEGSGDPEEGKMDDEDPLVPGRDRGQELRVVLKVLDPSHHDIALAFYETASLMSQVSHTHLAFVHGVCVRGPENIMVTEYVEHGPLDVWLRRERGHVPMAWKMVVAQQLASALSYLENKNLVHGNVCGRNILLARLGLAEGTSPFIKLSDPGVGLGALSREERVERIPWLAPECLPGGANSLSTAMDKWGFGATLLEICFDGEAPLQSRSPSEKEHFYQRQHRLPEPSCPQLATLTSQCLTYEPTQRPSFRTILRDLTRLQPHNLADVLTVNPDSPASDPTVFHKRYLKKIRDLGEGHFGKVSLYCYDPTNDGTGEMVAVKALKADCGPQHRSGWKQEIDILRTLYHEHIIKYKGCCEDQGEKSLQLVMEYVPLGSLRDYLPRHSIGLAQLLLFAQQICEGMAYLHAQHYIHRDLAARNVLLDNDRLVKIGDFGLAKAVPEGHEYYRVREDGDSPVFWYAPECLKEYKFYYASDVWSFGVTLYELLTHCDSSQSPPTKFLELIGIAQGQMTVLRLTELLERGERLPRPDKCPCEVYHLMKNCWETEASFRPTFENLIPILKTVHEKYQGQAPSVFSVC

SMILES	Ki [1] [nM]	Ki [2] [nM]	JAK2 pKi [3]	IC50 [4] [nM]	Ki [5] [nM]	Lung Tissue AUC(0-24) [6]	Lung Tissue:Plasma AUC ratio [6]	AUC(0-t) [6] [ng·h/mL]	JAK1 pKi [2]	Ki [3] [nM]
CCc1cc(O)ccc1-c1ccc2c(-c3nc(C4=CCN(C(=O)[C@@H](N)C(C)(C)O)CC4)c[nH]3)n[nH]c2c1 [Example 153]	1 to 10	0.1 to 1	A (A represents a pKi value ≥10 (Ki≤0.1 nM))	31.6 to 100	0.1 to 1					
CCc1cc(O)ccc1-c1ccc2c(-c3nc(C4=CCN(C(C)CO)CC4)c[nH]3)n[nH]c2c1F (centres unmarked) [Compound 13, 3-ethyl-4-(7-fluoro-3-(4-(1-(1-hydroxypropan-2-yl)-1,2,3,6-tetrahydropyridin-4-yl)-1H-imidazol-2-yl)-1H-indazol-6-yl)phenol]		0.1 to 1		3.16 to 10		B (B denotes a value between 50 and 100)	C (C denotes a ratio between 100 and 200)	500 to 1000		
CCc1cc(O)ccc1-c1ccc2c(-c3nc(C4=CCN(CCN5CCOCC5)CC4)c[nH]3)n[nH]c2c1 [Example 184]	1 to 10		A (A represents a pKi value ≥10 (Ki≤0.1 nM))	3.16 to 10	0.1 to 1				A (A represents a pKi value ≥10 (Ki≤0.1 nM))	
CCc1cc(O)ccc1-c1ccc2c(-c3nc(C4=CCN(C)CC4)c[nH]3)n[nH]c2c1 [Example 19]	0.1 to 1		A (A represents a pKi value ≥10 (Ki≤0.1 nM))	3.16 to 10	0.1 to 1				A (A represents a pKi value ≥10 (Ki≤0.1 nM))	
CCc1cc(O)ccc1-c1ccc2c(-c3nc(C4=CCCN(C5CCN(C)C5)C4)c[nH]3)n[nH]c2c1F (centres unmarked) [Example 215]	1 to 10	1 to 10		31.6 to 100	0.1 to 1					0.1 to 1
CCc1cc(O)ccc1-c1ccc2c(-c3nc(C4=CCCN(C)C4)c[nH]3)n[nH]c2c1 [Example 27]	1 to 10		A (A represents a pKi value ≥10 (Ki≤0.1 nM))	3.16 to 10	0.1 to 1				A (A represents a pKi value ≥10 (Ki≤0.1 nM))	
CCc1cc(O)ccc1-c1ccc2c(-c3nc(C4=C(C)CCNC4)c[nH]3)n[nH]c2c1F [Example 236]		0.1 to 1		10 to 31.6		B (B denotes a value between 50 and 100)	C (C denotes a ratio between 100 and 200)	500 to 1000		0.1 to 1
CCc1cc(O)ccc1-c1ccc2c(-c3nc(C4=CCN(CCNS(C)(=O)=O)CC4)c[nH]3)n[nH]c2c1F [Example 106]		0.1 to 1	A (A represents a pKi value ≥10 (Ki≤0.1 nM))	10 to 31.6		C (C denotes a value between 9 and 50)	C (C denotes a ratio between 100 and 200)	< 500		
CCc1cc(O)ccc1-c1ccc2c(-c3nc(C4=C[C@H](CC(=O)N(C)C)NC4)c[nH]3)n[nH]c2c1F [Example 255]			A (A represents a pKi value ≥10 (Ki≤0.1 nM))	10 to 31.6		A (For the Lung Tissue AUC(0-24), A denotes a value between 100 and 200)	D (D denotes a ratio between 50 and 100)	1000 to 1500	A (A represents a pKi value ≥10 (Ki≤0.1 nM))	
CCc1cc(O)ccc1-c1ccc2c(-c3nc(C4=CCN(C[C@H](C)CO)CC4)c[nH]3)n[nH]c2c1F [Example 38]				10 to 31.6		C (C denotes a value between 9 and 50)	D (D denotes a ratio between 50 and 100)	< 500	A (A represents a pKi value ≥10 (Ki≤0.1 nM))	0.1 to 1
CCc1cc(O)ccc1-c1ccc2c(-c3nc(C4=CCN(CCC(C)(C)O)C4)c[nH]3)n[nH]c2c1 [Example 51]			A (A represents a pKi value ≥10 (Ki≤0.1 nM))	3.16 to 10		C (C denotes a value between 9 and 50)	C (C denotes a ratio between 100 and 200)	< 500	A (A represents a pKi value ≥10 (Ki≤0.1 nM))	
CCc1cc(O)ccc1-c1ccc2c(-c3nc(C4=CCCN(C5CCCNC5)C4)c[nH]3)n[nH]c2c1F (centres unmarked) [Example 216]	1 to 10	1 to 10		100 to 316						0.1 to 1
CCc1cc(O)ccc1-c1ccc2c(-c3nc(C4=C[C@H](COC)NC4)c[nH]3)n[nH]c2c1 [Example 241]		0.1 to 1		3.16 to 10		C (C denotes a value between 9 and 50)	D (D denotes a ratio between 50 and 100)	500 to 1000		0.1 to 1
CCc1cc(O)ccc1-c1ccc2c(-c3nc(C4=CCN(CCN)CC4)c[nH]3)n[nH]c2c1F [Example 187]	1 to 10	0.1 to 1		31.6 to 100						0.1 to 1
CCc1cc(O)ccc1-c1ccc2c(-c3nc(C4=CCN(C5CCNC5=O)C4)c[nH]3)n[nH]c2c1 (centres unmarked) [Example 94]		0.1 to 1	A (A represents a pKi value ≥10 (Ki≤0.1 nM))	10 to 31.6		C (C denotes a value between 9 and 50)	E (E denotes a ratio between 30 and 50)	< 500		
